Data taken from patent US8916702B2 (priority 2012, dated 2014).

These molecules were tested on HCV pseudoparticles (genotype 1a HCV E1 and E2 envelope, H77C isolate) (assay: microbe, parasite or virus in culture). Conditions: Hepatitis C virus, Huh-7, 48 h, HCV pseudoparticle infection of Huh7 cells, luciferase 2 days after infection; average of duplicates.
Assay type: cell-based
Work on `COC(=O)[C@H](CNC(=O)C(=O)NCC1CCCN(C(=O)OC(C)(C)C)C1)NC(=O)c1ccc(Nc2nc(NC3(c4ccc(Cl)cc4)CC3)nc(OCC(F)(F)F)n2)cc1` (stereo partly drawn) [Compound 1452] yielded an EC50 of 1.83 nM.
Molecule `CC(C)(CNC(=O)C(=O)Nc1nccs1)CNC(=O)c1ccc(Nc2nc(NC3(c4ccc(Cl)cc4)CC3)nc(OCC(F)(F)F)n2)cc1` [Compound 1547] has an EC50 of 0.06 nM.

Same assay, conditions: Hepatitis C virus, Huh-7, 48 h, HCV pseudoparticles (genotype 1a, H77C) in Huh7 cells; average of duplicate; luciferase 2 days after infection
In the case of `CONC(=O)C(=O)NCC(C)(C)CNC(=O)c1ccc(Nc2nc(NC3(c4ccc(Cl)cc4)CC3)nc(OCC(F)(F)F)n2)cc1` [Compound 3002], the EC50 is reported as 0.044 nM.
Work on `COC(=O)/C(CCNC(=O)C(=O)Nc1ccc(C)nc1)=N\C(=O)c1ccc(Nc2nc(NC3(c4ccc(Cl)cc4)CC3)nc(OCC(F)(F)F)n2)cc1` [Compound 3590] yielded an EC50 of 0.16 nM.
`CC(C)(CNC(=O)C(=O)NS(=O)(=O)c1ccccc1)CNC(=O)c1ccc(Nc2nc(NC3(c4ccc(Cl)cc4)CC3)nc(OCC(F)(F)F)n2)cc1` [Compound 3021] gave an EC50 of 0.73 nM.

Same assay, conditions: Hepatitis C virus, Huh-7, 48 h, read-out: Activity (EC50 class), HCV pseudoparticle infection of Huh7 cells, luciferase 2 days after infection; EC50 expressed as class A/B
Molecule `COC(=O)[C@H](CNC(=O)C(=O)NCC1CCCN(C(=O)OC(C)(C)C)C1)NC(=O)c1ccc(Nc2nc(NC3(c4ccc(Cl)cc4)CC3)nc(OCC(F)(F)F)n2)cc1` (stereo partly drawn) [Compound 1452] has an EC50 of 0.01 to 10 nM.
`COC(=O)[C@H](CCNC(=O)C(=O)N[C@H](C)C1CC1)NC(=O)c1ccc(Nc2nc(NC3(c4ccc(Cl)cc4)CC3)nc(OCC(F)(F)F)n2)cc1` [Compound 1377] showed an EC50 of 0.01 to 10 nM.
`COC(=O)[C@H](CCNC(=O)C(=O)NCc1cccc(OC)c1)NC(=O)c1ccc(Nc2nc(NC3(c4ccc(Cl)cc4)CC3)nc(OCC(F)(F)F)n2)cc1` [Compound 1156] was tested, and the EC50 was 0.01 to 10 nM.
In the case of `O=C(NCC[C@H](NC(=O)c1ccc(Nc2nc(NC3(c4ccc(Cl)cc4)CC3)nc(OCC(F)(F)F)n2)cc1)C(=O)O)C(=O)Nc1cccc(C(F)(F)F)c1` [Compound 1271], the EC50 is reported as 0.01 to 10 nM.
Work on `CC(C)(CNC(=O)C(=O)Nc1nccs1)CNC(=O)c1ccc(Nc2nc(NC3(c4ccc(Cl)cc4)CC3)nc(OCC(F)(F)F)n2)cc1` [Compound 1547] yielded an EC50 of 0.01 to 10 nM.
`CN(C)C(=O)C(=O)NCC(C)(C)CNC(=O)c1ccc(Nc2nc(NC3(c4ccc(Cl)cc4)CC3)nc(OCC(F)(F)F)n2)cc1` [Compound 1008, N1-(3-(4-(4-(1-(4-chlorophenyl)cyclopropylamino)-6-(2,2,2-trifluoroethoxy)-1,3,5-triazin-2-ylamino)benzamido)-2,2-dimethylpropyl)-N2,N2-dimethyloxalamide] gave an EC50 of 0.01 to 10 nM.
In the case of `CNC(=O)C(=O)NC[C@H](NC(=O)c1ccc(Nc2nc(NC3(c4ccc(Cl)cc4)CC3)nc(OCC(F)(F)F)n2)cc1)C(=O)OC` [Compound 1003, (S)-methyl 2-(4-(4-(1-(4-chlorophenyl)cyclopropylamino)-6-(2,2,2-trifluoroethoxy)-1,3,5-triazin-2-ylamino)benzamido)-3-(2-(methylamino)-2-oxoacetamido)propanoate], the EC50 is reported as 0.01 to 10 nM.
Molecule `COC(=O)[C@H](CCNC(=O)C(=O)NC1CCC(C(C)(C)C)CC1)NC(=O)c1ccc(Nc2nc(NC3(c4ccc(Cl)cc4)CC3)nc(OCC(F)(F)F)n2)cc1` (stereo partly drawn) [Compound 1108] has an EC50 of 0.01 to 10 nM.
In the case of `O=C(NCc1ccccc1)C(=O)NC[C@H](NC(=O)c1ccc(Nc2nc(NC3(c4ccc(Cl)cc4)CC3)nc(OCC(F)(F)F)n2)cc1)C(=O)O` [Compound 1164], the EC50 is reported as 0.01 to 10 nM.
`Cc1cc(NC(=O)C(=O)NCC(C)(C)CNC(=O)c2ccc(Nc3nc(NC4(c5ccc(Cl)cc5)CC4)nc(OCC(F)(F)F)n3)cc2)no1` [Compound 1548] was tested, and the EC50 was 0.01 to 10 nM.
For `COC(=O)[C@H](CCNC(=O)C(=O)Nc1cc(F)ccc1F)NC(=O)c1ccc(Nc2nc(NC3(c4ccc(Cl)cc4)CC3)nc(OCC(F)(F)F)n2)cc1` [Compound 1503], the EC50 was 0.01 to 10 nM.
`COC(=O)[C@H](CCNC(=O)C(N)=O)NC(=O)c1ccc(Nc2nc(NC3(c4ccc(Cl)cc4)CC3)nc(OCC(F)(F)F)n2)cc1` [Compound 1009, (S)-methyl 4-(2-amino-2-oxoacetamido)-2-(4-(4-(1-(4-chlorophenyl)cyclopropylamino)-6-(2,2,2-trifluoroethoxy)-1,3,5-triazin-2-ylamino)benzamido)butanoate] showed an EC50 of 0.01 to 10 nM.
Molecule `COc1ncccc1NC(=O)C(=O)NCC[C@H](NC(=O)c1ccc(Nc2nc(NC3(c4ccc(Cl)cc4)CC3)nc(OCC(F)(F)F)n2)cc1)C(=O)O` [Compound 1261] has an EC50 of 0.01 to 10 nM.
In the case of `CCc1ccc(NC(=O)C(=O)NCC(C)(C)CNC(=O)c2ccc(Nc3nc(NC4(c5ccc(Cl)cc5)CC4)nc(OCC(F)(F)F)n3)cc2)cc1` [Compound 1583], the EC50 is reported as 0.01 to 10 nM.
In the case of `O=C(NCc1ccc(F)cc1F)C(=O)NC[C@H](NC(=O)c1ccc(Nc2nc(NC3(c4ccc(Cl)cc4)CC3)nc(OCC(F)(F)F)n2)cc1)C(=O)O` [Compound 1168], the EC50 is reported as 0.01 to 10 nM.
`COC(=O)[C@H](CNC(=O)C(=O)N(C)c1ccccc1)NC(=O)c1ccc(Nc2nc(NC3(c4ccc(Cl)cc4)CC3)nc(OCC(F)(F)F)n2)cc1` [Compound 1257] was tested, and the EC50 was 0.01 to 10 nM.
Work on `COC(=O)[C@H](CCNC(=O)C(=O)NC1CCC(F)(F)CC1)NC(=O)c1ccc(Nc2nc(NC3(c4ccc(Cl)cc4)CC3)nc(OCC(F)(F)F)n2)cc1` [Compound 1099] yielded an EC50 of 0.01 to 10 nM.
Molecule `COc1ccc(CNC(=O)C(=O)NCC[C@H](NC(=O)c2ccc(Nc3nc(NC4(c5ccc(Cl)cc5)CC4)nc(OCC(F)(F)F)n3)cc2)C(=O)O)c(OC)c1` [Compound 1194] has an EC50 of 0.01 to 10 nM.
`O=C(NC[C@H](NC(=O)c1ccc(Nc2nc(NC3(c4ccc(Cl)cc4)CC3)nc(OCC(F)(F)F)n2)cc1)C(=O)O)C(=O)NC1CCCC(O)C1` (stereo partly drawn) [Compound 1086] gave an EC50 of 0.01 to 10 nM.
Work on `CC(C)(CNC(=O)C(=O)Nc1cccc(C(=O)O)c1)CNC(=O)c1ccc(Nc2nc(NC3(c4ccc(Cl)cc4)CC3)nc(OCC(F)(F)F)n2)cc1` [Compound 1485] yielded an EC50 of 0.01 to 10 nM.
`NC(=O)C(=O)NCCC[C@H](NC(=O)c1ccc(Nc2nc(NC3(c4ccc(Cl)cc4)CC3)nc(OCC(F)(F)F)n2)cc1)C(=O)O` [Compound 1016, (S)-5-(2-amino-2-oxoacetamido)-2-(4-(4-(1-(4-chlorophenyl)cyclopropylamino)-6-(2,2,2-trifluoroethoxy)-1,3,5-triazin-2-ylamino)benzamido)pentanoic acid] showed an EC50 of 0.01 to 10 nM.
Work on `CC(C)(C)CNC(=O)C(=O)NC[C@H](NC(=O)c1ccc(Nc2nc(NC3(c4ccc(Cl)cc4)CC3)nc(OCC(F)(F)F)n2)cc1)C(=O)O` [Compound 1450] yielded an EC50 of 0.01 to 10 nM.
`COC(=O)[C@H](CCNC(=O)C(=O)Nc1ccccc1OC)NC(=O)c1ccc(Nc2nc(NC3(c4ccc(Cl)cc4)CC3)nc(OCC(F)(F)F)n2)cc1` [Compound 1234] gave an EC50 of 0.01 to 10 nM.
With `COC(=O)[C@H](CNC(=O)C(=O)NCC1CCc2ccccc21)NC(=O)c1ccc(Nc2nc(NC3(c4ccc(Cl)cc4)CC3)nc(OCC(F)(F)F)n2)cc1` (stereo partly drawn) [Compound 1303] the EC50 was 0.01 to 10 nM.
`COC(=O)[C@H](CNC(=O)C(=O)Nc1cccc(OC)c1)NC(=O)c1ccc(Nc2nc(NC3(c4ccc(Cl)cc4)CC3)nc(OCC(F)(F)F)n2)cc1` [Compound 1250] was tested, and the EC50 was 0.01 to 10 nM.

Same assay, conditions: Hepatitis C virus, Huh-7, 48 h, read-out: Activity (EC50 class), HCV pseudoparticles, Huh7 cells, luciferase 2 days after infection; average of duplicates
With `COC(=O)[C@H](CNC(=O)C(=O)Nc1cccc(-c2nc(C)cs2)c1)NC(=O)c1ccc(Nc2nc(NC3(c4ccc(Cl)cc4)CC3)nc(OCC(F)(F)F)n2)cc1` [Compound 3725] the EC50 was 0.01 to 10 nM.
`CC(C)(CNC(=O)C(=O)Nc1ccc(-c2ccncc2)cc1)CNC(=O)c1ccc(Nc2nc(NC3(c4ccc(Cl)cc4)CC3)nc(OCC(F)(F)F)n2)cc1` [Compound 3796] showed an EC50 of 0.01 to 10 nM.
For `O=C(NCC[C@H](NC(=O)c1ccc(Nc2nc(NC3(c4ccc(Cl)cc4)CC3)nc(OCC(F)(F)F)n2)cc1)C(=O)O)C(=O)Nc1cccc(-c2c[nH]cn2)c1` [Compound 3656], the EC50 was 0.01 to 10 nM.
Work on `COC(=O)[C@H](CNC(=O)C(=O)Nc1cccc(Cc2ccccc2)c1)NC(=O)c1ccc(Nc2nc(NC3(c4ccc(Cl)cc4)CC3)nc(OCC(F)(F)F)n2)cc1` [Compound 3714] yielded an EC50 of 0.01 to 10 nM.
In the case of `Cc1ccc(NC(=O)C(=O)NCC(C)(C)CNC(=O)c2ccc(Nc3nc(NC4(c5ccc(Cl)cc5)CC4)nc(OCc4ccc(C(C)C)cc4)n3)cc2F)cc1` [Compound 3827, N^1-(3-(4-((4-((1-(4-chlorophenyl)cyclopropyl)amino)-6-((4-isopropylbenzyl)oxy)-1,3,5-triazin-2-yl)amino)-2-fluorobenzamido)-2,2-dimethylpropyl)-N^2-(p-tolyl)oxalamide], the EC50 is reported as 0.01 to 10 nM.

Same assay, conditions: Hepatitis C virus, Huh-7, read-out: Activity (EC50 class), HCV pseudoparticles (genotype 1a, H77C) in Huh7 cells; EC50 expressed as class A/B
Molecule `Cc1cc(C)n(-c2ccc(NC(=O)C(=O)NCC[C@H](NC(=O)c3ccc(Nc4nc(NC5(c6ccc(Cl)cc6)CC5)nc(OCC(F)(F)F)n4)cc3)C(=O)O)cc2)n1` [Compound 3238] has an EC50 of 0.01 to 10 nM.
`CC(C)CNC(=O)C(=O)NCC(C)CNC(=O)c1ccc(Nc2nc(NC3(c4ccc(Cl)cc4)CC3)nc(OCC(F)(F)F)n2)cc1` (stereo not drawn) [Compound 3476] gave an EC50 of 0.01 to 10 nM.
In the case of `CONC(=O)C(=O)NCC(C)(C)CNC(=O)c1ccc(Nc2nc(NC3(c4ccc(Cl)cc4)CC3)nc(OCC(F)(F)F)n2)cc1` [Compound 3002], the EC50 is reported as 0.01 to 10 nM.
For `CC(C)(CNC(=O)C(N)=O)CNC(=O)c1ccc(Nc2nc(NC3(c4ccc(Cl)cc4)CC3)nc(OCC(F)(F)F)n2)cc1-c1ccccc1` [Compound 3511], the EC50 was 0.01 to 10 nM.
With `COc1ccc(NC(=O)C(=O)NCC(C)(C)CNC(=O)c2ccc(Nc3nc(NC4(c5ccc(Cl)cc5)CC4)nc(OCC(F)(F)F)n3)cc2)cc1` [Compound 3007] the EC50 was 0.01 to 10 nM.
Work on `O=C(NC[C@H](NC(=O)c1ccc(Nc2nc(NC3(c4ccc(Cl)cc4)CC3)nc(OCC(F)(F)F)n2)cc1)C(=O)O)C(=O)Nc1ccc(Cn2cccc2)cc1` [Compound 3280] yielded an EC50 of 0.01 to 10 nM.
With `CC(C)(CNC(=O)C(=O)Nc1ccc(S(C)(=O)=O)cc1)CNC(=O)c1ccc(Nc2nc(NC3(c4ccc(Cl)cc4)CC3)nc(OCC(F)(F)F)n2)cc1` [Compound 3254] the EC50 was 0.01 to 10 nM.
Molecule `COC(=O)/C(CCNC(=O)C(=O)Nc1ccc(C)nc1)=N\C(=O)c1ccc(Nc2nc(NC3(c4ccc(Cl)cc4)CC3)nc(OCC(F)(F)F)n2)cc1` [Compound 3590] has an EC50 of 0.01 to 10 nM.
For `CC(C)(CNC(=O)C(=O)Nc1ccc(Cl)c(F)c1)CNC(=O)c1ccc(Nc2nc(NC3(c4ccc(Cl)cc4)CC3)nc(OCC(F)(F)F)n2)cc1` [Compound 3071], the EC50 was 0.01 to 10 nM.
Molecule `CC(C)(CNC(=O)C(=O)NS(=O)(=O)c1ccccc1)CNC(=O)c1ccc(Nc2nc(NC3(c4ccc(Cl)cc4)CC3)nc(OCC(F)(F)F)n2)cc1` [Compound 3021] has an EC50 of 0.01 to 10 nM.
With `CC(C)(CNC(=O)C(=O)NCc1cccc(C(=N)N)c1)CNC(=O)c1ccc(Nc2nc(NC3(c4ccc(Cl)cc4)CC3)nc(OCC(F)(F)F)n2)cc1` [Compound 3039] the EC50 was 0.01 to 10 nM.
With `COC(=O)/C(CCNC(=O)C(=O)Nc1ccc(-n2nc(C)cc2C)cc1)=N\C(=O)c1ccc(Nc2nc(NC3(c4ccc(Cl)cc4)CC3)nc(OCC(F)(F)F)n2)cc1` [Compound 3137] the EC50 was 0.01 to 10 nM.
For `CC(C)(CNC(=O)C(=O)Nc1cn[nH]c1)CNC(=O)c1ccc(Nc2nc(NC3(c4ccc(Cl)cc4)CC3)nc(OCC(F)(F)F)n2)cc1` [Compound 3033], the EC50 was 0.01 to 10 nM.
